Results on two compounds are retold here after patent US8603762B2 (priority 2008, dated 2013).

Like-named read-outs stand apart in the source and are kept apart here.

Common to all, as to format: cell-based
Experiment [1] has as its target T1, human TAS2R46 (Homo sapiens, UniProt P59540).
T1 construct: RSS tag (first 45 amino acids of rat somatostatin receptor subtype 3, plus EcoRI site residues) (N); expressed in transfected cells
T1 sequence (P59540 with tags, fused parts or gaps): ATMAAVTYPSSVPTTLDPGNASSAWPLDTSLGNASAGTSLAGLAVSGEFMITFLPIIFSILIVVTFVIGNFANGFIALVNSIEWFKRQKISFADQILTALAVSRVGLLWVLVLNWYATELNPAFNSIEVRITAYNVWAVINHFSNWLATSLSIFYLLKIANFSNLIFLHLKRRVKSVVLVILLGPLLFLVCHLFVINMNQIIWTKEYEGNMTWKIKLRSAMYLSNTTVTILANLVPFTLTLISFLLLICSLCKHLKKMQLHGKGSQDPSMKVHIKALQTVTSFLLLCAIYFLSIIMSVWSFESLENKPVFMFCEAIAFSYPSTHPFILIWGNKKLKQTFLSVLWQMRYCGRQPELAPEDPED
As to the method:
(§1) At day 0, the HEK293T cell line expressing Gα16-gustducin44 and a TAS2R46 bitter taste receptor formed as described in examples 2b or 2c was seeded in antibiotic-free growth medium (standard DMEM with 10% (v/v) heat-inactivated fetal bovine serum, 2 mM L-glutamine[…]) into black wall/clear bottom 96-well plates, coated with poly(ethylenimine) (0.005% v/v) at a concentration of 15,000 cells per well and incubated for 48 hours in humidified atmosphere (37° C., 5% CO2).
(§2) At the time of the assay, the growth medium was discarded and the cells were in humidified atmosphere (37° C., 5% CO2) for 1 hour with 50 μl of loading buffer consisting of 1.5 μM Fluo-4 AM and […] probenicid (Sigma-Aldrich, St. Louis, Mo., US) in DMEM.
(§3) Afterwards, the 96-well plate was washed 5 times with 100 μl of assay buffer (130 mM NaCl, 5 mM KCl, 10 mM HEPES, 2 mM CaCl2, and 5 mM dextrose, pH 7.4) per well, using an automated plate washer (BioTek). The plate was further incubated for 30 minutes at room temperature in the dark to allow for complete de-esterification of the Fluo-4. Afterwards the plate was washed 5 times with 100 μl of assay buffer per well, and reconstituted with 100 μl of assay buffer per well.
(§4) For assay reading, the plate was placed in a Fluorometric Imaging Plate Reader (FLIPR) (FLIPR-TETRA™, Molecular Devices, Sunnyvale, Calif., US), and receptor activation was initiated by addition of 20 μl of a tenfold concentrated agonist stock solution (to give the desired agonist end concentration when added to the 180 microliter assay buffer volume), which was prepared in assay buffer.
(§5) Fluorescence was continuously monitored for 20 seconds to give a signal baseline (averaged to give F0) prior to agonist addition and for 120 seconds after agonist addition. The change in signal divided by F0 gives ΔF/F0 indicated in the table, with ΔF being the maximum signal occurring within the 120 seconds minus the minimum signal (occurring within the 120 seconds after agonist addition.
(§6) The obtained calcium signals were corrected for the response of cells expressing only the G Protein α subunit (Gα16-gustducin44) and normalized to the fluorescence of cells prior to the stimulus using ΔF/F0 (Fmax−Fmin/F0).

The test system of experiment [2] is HEK293T Gα16gustducin44 cells (that do not express TAS2R46). As for the experimental part: as §1, §2, §3, §4, §5, §6
Experiment [3] relates to more than 15 human TAS2Rs. The experiment can be described thus: Activation of other human TAS2Rs. The note with it: more than 15 human TAS2Rs tested.
The target of experiment [4] is T1, human TAS2R46. The experiment is described as follows: Fluo-4 calcium assay, HEK293T/Gα16-gustducin44 cells transiently expressing TAS2R46. As for the experimental part: In a second tube, 0.3 μl of Lipofectamine 2000 was diluted in 12.5 μl of DMEM and incubated for 5 min at room temperature. After the 5 min, both solutions were mixed and incubated for 20 min at RT. […] This mixture was then replaced with an antibiotic-free, serum-containing DMEM. […]
as §4
Fluorescence was continuously monitored for 20 seconds to give a signal baseline (averaged to give F0) prior to agonist addition and for 120 seconds after agonist addition. […]
as §6

With `COc1ccc2c(c1)[C@]13CCCC[C@@H]1[C@H](C2)N(C)CC3` [dextromethorphan], the “calcium signaling upon addition of agonist (in words)” value in experiment [1] (cells stably expressing human TAS2R46) is on record as “significant increase in calcium signaling”; in experiment [4] it was “significant concentration-dependent increase in calcium signaling”. In addition, the 50% effective concentration (EC50) in experiment [1] (stable cell line, nonlinear regression of ΔF/F0, read-out: calculated EC50 value for TAS2R46) was 31 µM. The “Neg. Control ΔF/F0” value is listed as 0.050 in experiment [2] (dextromethorphan 0.254 μM, cells expressing only Gα16gustducin44); 0.044 in experiment [2] (dextromethorphan 0.508 μM, cells expressing only Gα16gustducin44); 0.053 in experiment [2] (dextromethorphan 1.016 μM, cells expressing only Gα16gustducin44); 0.038 in experiment [2] (dextromethorphan 2.031 μM, cells expressing only Gα16gustducin44); 0.041 in experiment [2] (dextromethorphan 4.063 μM, cells expressing only Gα16gustducin44); 0.044 in experiment [2] (dextromethorphan 8.125 μM, cells expressing only Gα16gustducin44). For the same compound, the “Neg. Control ΔF/F0” value is reported as 0.067 in experiment [2] (dextromethorphan 16.250 μM, cells expressing only Gα16gustducin44) and 0.312 in experiment [2] (dextromethorphan 65.000 μM, cells expressing only Gα16gustducin44). Also, in experiment [2] (host cells expressing only Gα16-gustducin44), the “change in signal in the negative control (in words)” value was “No significant change”. Also, in experiment [3], the “activation of other human TAS2Rs (in words)” value is “not to be activated”.
With `O=C1C[C@@H]2OCC=C3CN4CC[C@]56c7ccccc7N1[C@H]5[C@H]2[C@H]3C[C@H]46` [strychnine], the “Neg. Control ΔF/F0” value is listed as 0.060 in experiment [2] (strychnine 0.977 μM, cells without TAS2R46); 0.065 in experiment [2] (strychnine 1.953 μM, cells without TAS2R46); 0.071 in experiment [2] (strychnine 3.906 μM, cells without TAS2R46); 0.070 in experiment [2] (strychnine 7.813 μM, cells without TAS2R46); 0.063 in experiment [2] (strychnine 15.63 μM, cells without TAS2R46); 0.088 in experiment [2] (strychnine 31.25 μM, cells without TAS2R46). Also, the “Neg. Control ΔF/F0” value amounted to 0.091 in experiment [2] (strychnine 62.50 μM, cells without TAS2R46); 0.088 in experiment [2] (strychnine 125.0 μM, cells without TAS2R46); 0.181 in experiment [2] (strychnine 250.0 μM, cells without TAS2R46).
